Experimental data reported in patent US9555050B2 (BIOGEN MA INC., priority 2012, dated 2017).
pIC50: −log10 of the molar value.

Each molecule was assayed against T1, Human ATX protein (Homo sapiens, UniProt Q13822) (assay: ATX biochemical FRET assay with FS-3 substrate). Settings: FS-3 substrate 2 μM, ATX 1.0 μg/mL, 30 min preincubation, 2 hours at room temperature.
T1 construct: made in house
Method in brief: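 In-house purified human ATX (1.0 μg/mL final) pre-incubated 30 min at room temperature with compound in Tris buffer pH 7.4 with salts and 1 mg/mL fatty acid-free BSA. FS-3 substrate (2 μM final) then hydrolysed 2 h at room temperature, protected from light; fluorescence read at 485/538 nm.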

Row | Compound | pIC50
1 | O=C(NCCCP(=O)(O)O)c1ccc2c(C(F)(F)F)c(O[C@H]3CC[C@@H](C(F)(F)F)CC3)ccc2c1 [Example 19, (3-(5-(trifluoromethyl)-6-((cis-4-(trifluoromethyl)cyclohexyl)oxy)-2-naphthamido)propyl)phosphonic acid] | ≥ 7.00
2 | CCC(c1ccc2c(C(F)(F)F)c(O[C@H]3CC[C@@H](C)CC3)ccc2c1)N1CCC[C@@H](CC(=O)O)C1 (stereo partly drawn) [Example 52, 2-((3S)-1-(1-(6-((cis-4-Methylcyclohexyl)oxy)-5-(trifluoromethyl)naphthalen-2-yl)propyl)piperidin-3-yl)acetic acid] | ≥ 7.00
3 | CC1(C)C(NC(c2ccc3c(C(F)(F)F)c(O[C@H]4CC[C@@H](C)CC4)ccc3c2)C2CC2)CC1C(=O)O (some centres unmarked) [Example 38] | ≥ 6.60
4 | C[C@@H](c1ccc2c(C(F)F)c(O[C@H]3CC[C@@H](C)CC3)ccc2c1)N1CCC(C(=O)O)CC1 [Example 61, 1-((S)-1-(6-((cis-4-Methylcyclohexyl)oxy)-5-(difluoromethyl)naphthalen-2-yl)ethyl)piperidine-4-carboxylic acid] | ≥ 6.60
5 | C[C@H]1CC[C@@H](Oc2ccc3cc(CN4CC(CC(=O)O)C4)ccc3c2C(F)(F)F)CC1 [Example 47, 1-((5-trifluoromethyl-6-(cis-4-methylcyclohexyloxy)naphthalene-2-yl)methyl)-azetidine-3-acetic acid] | ≥ 6.30
6 | CCC(c1ccc2c(C(F)(F)F)c(O[C@H]3CC[C@@H](C(F)(F)F)CC3)ccc2c1)N1CCC[C@@H](CC(=O)O)C1 (stereo partly drawn) [Example 89, 2-((S)-1-(1-(2-(cis-4-(trifluoromethyl)cyclohexyloxy)-1-(trifluoromethyl)naphthalen-6-yl)propyl)piperidin-3-yl)acetic acid] | ≥ 7.00
7 | CC1(C)C(NC(c2ccc3c(C(F)(F)F)c(O[C@H]4CC[C@@H](C)CC4)ccc3c2)C2CCCCC2)CC1C(=O)O (some centres unmarked) [Example 42] | ≥ 6.30
8 | CC(c1ccc2c(C(F)F)c(O[C@H]3CC[C@@H](C)CC3)ccc2c1)N1CCC[C@H](CC(=O)O)C1 (stereo partly drawn) [Example 53, 2-((3R)-1-(1-(6-((cis-4-Methylcyclohexyl)oxy)-5-(difluoromethyl)naphthalen-2-yl)ethyl)piperidin-3-yl)acetic acid] | ≥ 7.00
9 | CCC(c1ccc2c(C(F)(F)F)c(O[C@H]3CC[C@@H](C)CC3)ccc2c1)N1CCC[C@H](CC(=O)O)C1 (stereo partly drawn) [Example 10, 2-((3R)-1-(1-(6-((cis-4-Methylcyclohexyl)oxy)-5-(trifluoromethyl)naphthalen-2-yl)propyl)piperidin-3-yl)acetic acid] | ≥ 7.00
10 | C[C@H]1CC[C@@H](Oc2ccc3cc(CN4CCCCC(C(=O)O)C4)ccc3c2C(F)(F)F)CC1 (relative stereo) [Example 48, 1-((5-trifluoromethyl-6-(cis-4-methylcyclohexyloxy)naphthalene-2-yl)methyl)-azepane-3-carboxylic acid] | ≥ 6.30
11 | C[C@H]1CC[C@@H](Oc2ccc3cc(CN4CCOC(CC(=O)O)C4)ccc3c2C(F)(F)F)CC1 (some centres unmarked) [Example 8] | ≥ 6.30
12 | CC(c1ccc2c(C(F)F)c(O[C@H]3CC[C@@H](C)CC3)ccc2c1)N1CCC[C@@H](CC(=O)O)C1 (stereo partly drawn) [Example 54, 2-((3S)-1-(1-(6-((cis-4-Methylcyclohexyl)oxy)-5-(difluoromethyl)naphthalen-2-yl)ethyl)piperidin-3-yl)acetic acid] | ≥ 7.00

Results, then the molecule that gave them:

Row | pIC50 | Compound
13 | ≥ 6.60 | O=C(O)c1ccc(CNCc2ccc3c(C(F)(F)F)c(O[C@H]4CC[C@@H](C(F)(F)F)CC4)ccc3c2)nc1 [Example 69, 6-((((5-(trifluoromethyl)-6-((cis)-4-(trifluoromethyl)cyclohexyloxy)naphthalene-2-yl)methyl)amino)methyl)nicotinic acid]
14 | ≥ 6.60 | O=C(O)CC1CCCCN1Cc1ccc2c(C(F)(F)F)c(O[C@H]3CC[C@@H](C(F)(F)F)CC3)ccc2c1 (relative stereo) [Example 27, 2-(1-((5-(trifluoromethyl)-6-((cis)-4-(trifluoromethyl)cyclohexyloxy)naphthalen-2-yl)methyl)piperidin-2-yl)acetic acid]
15 | ≥ 7.00 | CC1(C)C(NC(c2ccc3c(C(F)(F)F)c(O[C@H]4CC[C@@H](C(F)(F)F)CC4)ccc3c2)C2CC2)CC1C(=O)O (some centres unmarked) [Example 44]
16 | ≥ 6.30 | O=C(O)C1CN(Cc2ccc3c(C(F)(F)F)c(O[C@H]4CC[C@@H](C(F)(F)F)CC4)ccc3c2)CCC1O (relative stereo) [Example 35, 4-hydroxy-1-((5-(trifluoromethyl)-6-((cis)-4-(trifluoromethyl)cyclohexyloxy)naphthalen-2-yl)methyl)piperidine-3-carboxylic acid]
17 | ≥ 6.30 | O=C(O)C1CCN(Cc2ccc3c(C(F)(F)F)c(O[C@H]4CC[C@@H](C(F)(F)F)CC4)ccc3c2)CC1 [Example 2, 1-((5-(trifluoromethyl)-6-((cis-4-(trifluoromethyl)cyclohexyl)oxy)-naphthalen-2-yl)methyl)piperidine-4-carboxylic acid]
18 | ≥ 6.60 | O=C(O)CC1CCN(Cc2ccc3c(C(F)(F)F)c(O[C@H]4CC[C@@H](C(F)(F)F)CC4)ccc3c2)C1 (relative stereo) [Example 64, 1-((5-(trifluoromethyl)-6-((cis-4-(trifluoromethyl)cyclohexyl)oxy)-naphthalen-2-yl)methyl)pyrrolidine-3-acetic acid]
19 | ≥ 6.30 | CC1(C)C(NCc2ccc3c(C(F)(F)F)c(O[C@H]4CC[C@@H](C(F)(F)F)CC4)ccc3c2)CC1C(=O)O (stereo partly drawn) [Example 1, 2,2-dimethyl-3-(((5-(trifluoromethyl)-6-((cis-4-(trifluoromethyl)cyclo-hexyl)oxy)naphthalen-2-yl)methyl)amino)cyclobutanecarboxylic acid]
20 | ≥ 7.00 | CC(NC1CC(C(=O)O)C1(C)C)c1ccc2c(C(F)(F)F)c(O[C@H]3CC[C@@H](C(F)(F)F)CC3)ccc2c1 (stereo partly drawn) [Example 37, 2,2-dimethyl-3-(1-(5-(trifluoromethyl)-6-((cis)-4-(trifluoromethyl)cyclohexyloxy)naphthalen-2-yl)ethylamino)cyclobutanecarboxylic acid]
21 | ≥ 6.30 | CCC(NC1CC(C(=O)O)C1(C)C)c1ccc2c(C(F)(F)F)c(O[C@H]3CC[C@@H](C)CC3)ccc2c1 (relative stereo) [Example 36, 2,2-dimethyl-3-(1-(6-((cis)-4-methylcyclohexyloxy)-5-(trifluoromethyl)naphthalen-2-yl)propylamino)cyclobutanecarboxylic acid]
22 | ≥ 6.30 | O=C(O)[C@H]1CC[C@@H](NCc2ccc3c(C(F)(F)F)c(O[C@H]4CC[C@@H](C(F)(F)F)CC4)ccc3c2)CC1 [Example 70, cis-4-(((5-(trifluoromethyl)-6-((cis)-4-(trifluoromethyl)cyclohexyloxy)naphthalene-2-yl)methyl)amino)cyclohexane-1-carboxylic acid]
23 | ≥ 6.30 | CC1(C)C(NCc2ccc3c(C(F)F)c(O[C@H]4CC[C@@H](C(F)(F)F)CC4)ccc3c2)CC1C(=O)O (relative stereo) [Example 33, 3-((5-(difluoromethyl)-6-((cis)-4-(trifluoromethyl)cyclohexyloxy)naphthalen-2-yl)methylamino)-2,2-dimethylcyclobutanecarboxylic acid]
24 | ≥ 6.30 | O=C(O)[C@@H]1CCCN(Cc2ccc3c(C(F)(F)F)c(O[C@H]4CC[C@@H](C(F)(F)F)CC4)ccc3c2)C1 [Example 24, (R)-1-((5-(trifluoromethyl)-6-((cis)-4-(trifluoromethyl)cyclohexyloxy)naphthalen-2-yl)methyl)piperidine-3-carboxylic acid]
25 | ≥ 6.60 | O=C(O)[C@H]1CC[C@H](CNCc2ccc3c(C(F)(F)F)c(O[C@H]4CC[C@@H](C(F)(F)F)CC4)ccc3c2)CC1 [Example 25, (trans)-4-(((5-(trifluoromethyl)-6-((cis)-4-(trifluoromethyl)cyclohexyloxy)naphthalen-2-yl)methylamino)methyl)cyclohexanecarboxylic acid]
26 | ≥ 6.30 | CC1(C)C(NC(c2ccc3c(C(F)(F)F)c(O[C@H]4CC[C@@H](C(F)(F)F)CC4)ccc3c2)C2CCCCC2)CC1C(=O)O (some centres unmarked) [Example 43]
